This is an account of results in patent US20240294545A1 (CSPC Zhongqi Pharmaceutical Technology (Shijiazhuang) Co., …, priority 2020, published 2024).

The target in the assay is ATM (Homo sapiens (Human), UniProt Q13315). Kind of assay: Caliper mobility shift assay for ATM. In kind it is biochemical. Conditions: read-out: IC50 of inhibitory activity on ATM kinase. The procedure: 1.2 Determination of the Inhibitory Activities of Compounds on ATM: Caliper Mobility Shift Assay for ATM
To a 96-well plate, 98 μL of DMSO and 2 μL of the 10 mM stock solution were added and mixed evenly so that the concentration of the solution was 200 μM.
Based on the inhibitory rates of the compound at different concentrations, IC50 was calculated according to the formula: Y=Bottom+(Top−Bottom)/(1+(IC50/X)^HillSlope).

Each structure is given as a SMILES string.

Sequence of ATM (Q13315 whole entry): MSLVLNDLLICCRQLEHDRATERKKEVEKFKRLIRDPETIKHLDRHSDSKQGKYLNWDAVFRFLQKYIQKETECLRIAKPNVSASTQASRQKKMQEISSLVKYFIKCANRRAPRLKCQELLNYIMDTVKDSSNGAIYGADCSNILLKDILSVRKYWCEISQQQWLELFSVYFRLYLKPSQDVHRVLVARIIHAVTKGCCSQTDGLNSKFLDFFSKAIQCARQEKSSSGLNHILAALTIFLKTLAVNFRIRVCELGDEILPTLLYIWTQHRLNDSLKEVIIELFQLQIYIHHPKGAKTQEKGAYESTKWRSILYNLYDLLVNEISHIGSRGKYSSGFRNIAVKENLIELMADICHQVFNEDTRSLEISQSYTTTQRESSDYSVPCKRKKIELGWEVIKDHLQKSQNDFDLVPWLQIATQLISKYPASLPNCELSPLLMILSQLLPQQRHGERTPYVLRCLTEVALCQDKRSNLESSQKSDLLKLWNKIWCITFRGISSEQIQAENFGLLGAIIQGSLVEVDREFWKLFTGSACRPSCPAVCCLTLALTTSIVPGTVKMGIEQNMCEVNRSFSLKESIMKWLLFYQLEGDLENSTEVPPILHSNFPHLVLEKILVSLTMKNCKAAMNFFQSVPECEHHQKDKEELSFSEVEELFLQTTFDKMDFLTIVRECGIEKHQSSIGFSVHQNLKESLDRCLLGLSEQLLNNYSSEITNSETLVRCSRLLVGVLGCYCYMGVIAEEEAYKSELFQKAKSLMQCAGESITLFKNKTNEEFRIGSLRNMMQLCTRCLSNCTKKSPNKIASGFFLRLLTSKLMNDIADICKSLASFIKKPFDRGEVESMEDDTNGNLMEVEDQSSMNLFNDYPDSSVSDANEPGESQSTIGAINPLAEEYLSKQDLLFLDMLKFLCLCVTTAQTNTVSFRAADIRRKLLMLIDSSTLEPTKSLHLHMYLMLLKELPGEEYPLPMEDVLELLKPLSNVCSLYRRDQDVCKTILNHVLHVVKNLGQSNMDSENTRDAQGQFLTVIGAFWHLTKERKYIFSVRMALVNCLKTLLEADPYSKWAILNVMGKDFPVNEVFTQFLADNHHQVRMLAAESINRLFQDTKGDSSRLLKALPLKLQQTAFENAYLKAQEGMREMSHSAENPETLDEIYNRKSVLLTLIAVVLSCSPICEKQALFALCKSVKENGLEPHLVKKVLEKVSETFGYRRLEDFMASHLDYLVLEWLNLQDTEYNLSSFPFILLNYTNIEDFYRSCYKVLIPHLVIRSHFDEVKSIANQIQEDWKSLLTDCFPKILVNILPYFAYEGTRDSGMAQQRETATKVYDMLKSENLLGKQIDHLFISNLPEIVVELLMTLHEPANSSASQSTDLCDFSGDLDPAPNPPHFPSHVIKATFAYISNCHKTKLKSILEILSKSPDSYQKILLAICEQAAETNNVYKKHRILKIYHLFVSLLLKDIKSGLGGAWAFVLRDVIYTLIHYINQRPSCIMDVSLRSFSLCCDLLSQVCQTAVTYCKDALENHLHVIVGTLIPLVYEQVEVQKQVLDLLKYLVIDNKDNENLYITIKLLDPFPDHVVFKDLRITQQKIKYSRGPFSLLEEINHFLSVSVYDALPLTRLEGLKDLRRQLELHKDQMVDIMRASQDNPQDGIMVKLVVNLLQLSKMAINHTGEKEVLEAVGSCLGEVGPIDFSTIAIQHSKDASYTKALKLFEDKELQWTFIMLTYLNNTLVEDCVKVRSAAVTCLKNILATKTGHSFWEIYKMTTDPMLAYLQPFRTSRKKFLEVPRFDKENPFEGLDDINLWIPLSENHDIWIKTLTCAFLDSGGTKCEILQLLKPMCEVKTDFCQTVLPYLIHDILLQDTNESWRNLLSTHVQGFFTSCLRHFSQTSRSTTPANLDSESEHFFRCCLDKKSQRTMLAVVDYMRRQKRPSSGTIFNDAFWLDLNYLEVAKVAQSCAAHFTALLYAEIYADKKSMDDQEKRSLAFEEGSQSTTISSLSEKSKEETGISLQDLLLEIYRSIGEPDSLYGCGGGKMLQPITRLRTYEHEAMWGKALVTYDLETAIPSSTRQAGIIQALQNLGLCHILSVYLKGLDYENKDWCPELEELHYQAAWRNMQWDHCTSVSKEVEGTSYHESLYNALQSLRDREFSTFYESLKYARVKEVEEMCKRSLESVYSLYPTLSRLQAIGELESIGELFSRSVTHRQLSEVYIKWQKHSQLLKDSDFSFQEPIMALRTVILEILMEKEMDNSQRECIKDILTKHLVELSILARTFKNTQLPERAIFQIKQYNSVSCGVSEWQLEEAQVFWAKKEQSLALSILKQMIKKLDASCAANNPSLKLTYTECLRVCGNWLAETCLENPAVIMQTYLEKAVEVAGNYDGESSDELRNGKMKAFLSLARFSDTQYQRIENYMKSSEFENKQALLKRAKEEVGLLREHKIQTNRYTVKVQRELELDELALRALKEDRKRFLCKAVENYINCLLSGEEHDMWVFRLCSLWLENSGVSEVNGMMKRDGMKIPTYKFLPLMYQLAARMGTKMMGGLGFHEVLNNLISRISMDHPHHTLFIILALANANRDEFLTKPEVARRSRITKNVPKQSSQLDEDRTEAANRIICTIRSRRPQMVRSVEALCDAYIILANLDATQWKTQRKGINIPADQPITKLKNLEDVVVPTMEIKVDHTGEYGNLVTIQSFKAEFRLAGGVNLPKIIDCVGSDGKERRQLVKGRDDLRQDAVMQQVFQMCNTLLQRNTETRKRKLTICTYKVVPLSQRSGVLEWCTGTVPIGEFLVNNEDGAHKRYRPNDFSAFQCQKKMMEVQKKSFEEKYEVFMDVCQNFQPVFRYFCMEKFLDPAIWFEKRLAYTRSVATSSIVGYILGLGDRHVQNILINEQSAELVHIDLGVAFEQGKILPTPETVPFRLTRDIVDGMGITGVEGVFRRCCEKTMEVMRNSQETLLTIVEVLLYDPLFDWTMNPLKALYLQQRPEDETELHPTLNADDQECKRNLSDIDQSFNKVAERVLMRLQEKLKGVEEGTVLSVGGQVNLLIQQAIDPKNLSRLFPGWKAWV

The IC50 is the point on the concentration scale where inhibition reaches its midpoint. For the compound `Cn1c(=O)n2c3c4c(c(-c5ccc(OCCCN6CCCCC6)nc5)ccc4ncc31)OCC2(C)C` [Example A-67, 2,10,10-trimethyl-7-(6-(3-(piperidin-1-yl)propoxy)pyridin-3-yl)-9,10-dihydro-8-oxa-2,4,10a-triazanaphtho[2,1,8-cde]azulen-1(2H)-one], the IC50 came to 0.26 nM.
Take `COCC1COc2c(-c3ccc(OCCCN4CCCCC4)nc3)c(F)cc3ncc4c(c23)n1c(=O)n4C` (stereo not drawn) [Example A-49, 6-fluoro-10-(methoxymethyl)-2-methyl-7-(6-(3-(piperidin-1-yl)propoxy)pyridin-3-yl)-9,10-dihydro-8-oxa-2,4,10a-triazanaphtho[2,1,8-cde]azulen-1(2H)-one]: the IC50 worked out at 0.86 nM.
Next, `CN(C)CCCOc1ccc(-c2ccc3ncc4c5c3c2OCC2(CC2)n5c(=O)n4C)cn1` [Example A-179, 7-(6-(3-(dimethylamino)propoxy)pyridin-3-yl)-2-methyl-2,9-dihydro-1H-spiro[8-oxa-2,4,10a-triazanaphtho[2,1,8-cde]azulene-10,1′-cyclopropan]-1-one]: 0.37 nM; `COc1cc2ncc3c4c2c(c1-c1cnn(C)c1)OCC(c1ccccn1)n4c(=O)n3C` (stereo not drawn) [Example A-30, 6-methoxy-2-methyl-7-(1-methyl-1H-pyrazol-4-yl)-10-(pyridin-2-yl)-9,10-dihydro-8-oxa-2,4,10a-triazanaphtho[2,1,8-cde]azulen-1(2H)-one]: 0.27 nM.
Next, `Cn1c(=O)n2c3c4c(c(-c5ccc(OCCCN6CC[C@H](C#N)C6)nc5)c(F)cc4ncc31)OCC21CCC1` [Example A-160]: 0.43 nM; `COc1cc2ncc3c4c2c(c1-c1ccc(OCCCN2CCCCC2)nc1)OC[C@@H](C)n4c(=O)n3C` [Example A-32, (R)-6-methoxy-2,10-dimethyl-7-(6-(3-(piperidin-1-yl)propoxy)pyridin-3-yl)-9,10-dihydro-8-oxa-2,4,10a-triazanaphtho[2,1,8-cde]azulen-1(2H)-one]: 0.94 nM.
`CC[C@H]1COc2c(-c3ccc(OCCCN4CCCCC4)nc3)c(F)cc3ncc4c(c23)n1c(=O)n4C` [Example A-23, (S)-10-ethyl-6-fluoro-2-methyl-7-(6-(3-(piperidin-1-yl)propoxy)pyridin-3-yl)-9,10-dihydro-8-oxa-2,4,10a-triazanaphtho[2,1,8-cde]azulen-1(2H)-one]: the IC50 came to 0.42 nM.
In the case of `Cn1c(=O)n2c3c4c(c(-c5ccc(OCCCN6CCCCC6)nc5)c(F)cc4ncc31)OCCC2` [Compound A-154] it was 0.71 nM.
In the case of `C[C@@H]1CNc2c(-c3ccc(OCCCN4CCCCC4)nc3)c(F)cc3ncc4c(c23)n1c(=O)n4C` [Example A-195, (R)-6-fluoro-2,10-dimethyl-7-(6-(3-(piperidin-1-yl)propoxy)pyridin-3-yl)-2,8,9,10-tetrahydro-1H-2,4,8,10a-tetraazanaphtho[2,1,8-cde]azulen-1(2H)-one] it was 0.41 nM.
Next, `CC[C@@H]1COc2c(-c3ccc(OCCCN4CCCCC4)nc3)ccc3ncc4c(c23)n1c(=O)n4C` [Example A-187, (R)-10-ethyl-2-methyl-7-(6-(3-(piperidin-1-yl)propoxy)pyridin-3-yl)-9,10-dihydro-8-oxa-2,4,10a-triazanaphtho[2,1,8-cde]azulen-1(2H)-one]: 0.22 nM; `Cn1c(=O)n2c3c4c(c(-c5ccc(OCCCN6CCCCC6)nc5)ccc4ncc31)NCC21CCC1` [Example A-202, 2-methyl-7-(6-(3-(piperidin-1-yl)propoxy)pyridin-3-yl)-8,9-dihydrospiro[2,4,8,10a-tetraazanaphtho[2,1,8-cde]azulene-10,1′-cyclobutan]-1(2H)-one]: 0.23 nM.
`CC[C@H]1COc2c(-c3ccc(OCCCN(C)C)nc3)ccc3ncc4c(c23)n1c(=O)n4C` [Example A-189, (S)-7-(6-(3-(dimethylamino)propoxy)pyridin-3-yl)-10-ethyl-2-methyl-9,10-dihydro-8-oxa-2,4,10a-triazanaphtho[2,1,8-cde]azulen-1(2H)-one]: the concentration for half-maximal inhibition (IC50) was 0.38 nM.
Next, `C[C@@H]1COc2c(-c3ccc(OCCCN(C)C)nc3)ccc3ncc4c(c23)n1c(=O)n4C` [Example A-181, (R)-7-(6-(3-(dimethylamino)propoxy)pyridin-3-yl)-2,10-dimethyl-9,10-dihydro-8-oxa-2,4,10a-triazanaphtho[2,1,8-cde]azulen-1(2H)-one]: 0.72 nM; `Cn1c(=O)n2c3c4c(c(-c5ccc(OCCCN6CCCC6)nc5)c(F)cc4ncc31)OCC21CCC1` [Example A-162, 6-fluoro-2-methyl-7-(6-(3-(pyrrolidin-1-yl)propoxy)pyridin-3-yl)-2,9-dihydro-1H-spiro[8-oxa-2,4,10a-triazanaphtho[2,1,8-cde]azulene-10,1′-cyclobutan]-1-one]: 0.36 nM; `C[C@H]1COc2c(-c3ccc(OCCCN4CCCCC4)nc3)c(F)cc3ncc4c(c23)n1c(=O)n4C` [Example A-1, (S)-6-fluoro-2,10-dimethyl-7-(6-(3-(piperidin-1-yl)propoxy)pyridin-3-yl)-9,10-dihydro-8-oxa-2,4,10a-triazanaphtho[2,1,8-cde]azulen-1(2H)-one]: 0.79 nM.
In the case of `C[C@@H]1COc2c(-c3ccc(OCCCN4CCCCC4)nc3)c(F)cc3ncc4c(c23)n1c(=O)n4C` [Example A-4, (R)-6-fluoro-2,10-dimethyl-7-(6-(3-(piperidin-1-yl)propoxy)pyridin-3-yl)-9,10-dihydro-8-oxa-2,4,10a-triazanaphtho[2,1,8-cde]azulen-1(2H)-one] it was 0.9 nM; in that of `CC1CCN(CCCOc2ccc(-c3ccc4ncc5c6c4c3OC[C@H](C)n6c(=O)n5C)cn2)CC1` [Example A-208, (S)-2,10-dimethyl-7-(6-(3-(4-methylpiperidin-1-yl)propoxy)pyridin-3-yl)-9,10-dihydro-8-oxa-2,4,10a-triazanaphtho[2,1,8-cde]azulen-1(2H)-one], 0.29 nM; in that of `C[C@H]1COc2c(-c3ccc(OCCCN4CCC(C)(C)CC4)nc3)ccc3ncc4c(c23)n1c(=O)n4C` [Example A-207, (S)-7-(6-(3-(4,4-dimethylpiperidin-1-yl)propoxy)pyridin-3-yl)-2,10-dimethyl-9,10-dihydro-8-oxa-2,4,10a-triazanaphtho[2,1,8-cde]azulen-1(2H)-one], 0.44 nM.
In the case of `CC[C@H]1CNc2c(-c3ccc(OCCCN4CCCCC4)nc3)c(F)cc3ncc4c(c23)n1c(=O)n4C` [Example A-196, (S)-10-ethyl-6-fluoro-2-methyl-7-(6-(3-(piperidin-1-yl)propoxy)pyridin-3-yl)-2,8,9,10-tetrahydro-1H-2,4,8,10a-tetraazanaphtho[2,1,8-cde]azulen-1(2H)-one] it was 0.51 nM.
As to `C[C@H]1COc2c(-c3ccc(OCCCN4CCC5(CC4)COC5)nc3)c(F)cc3ncc4c(c23)n1c(=O)n4C` [Example A-171, (S)-7-(6-(3-(2-oxa-7-azaspiro[3.5]nonan-7-yl)propoxy)pyridin-3-yl)-6-fluoro-2,10-dimethyl-9,10-dihydro-8-oxa-2,4,10a-triazanaphtho[2,1,8-cde]azulen-1(2H)-one], the IC50 is 0.42 nM.
Next, `Cn1c(=O)n2c3c4c(c(-c5ccc(OCCCN6CCCCC6)nc5)ccc4ncc31)OCC21CCC1` [Example A-176, 2-methyl-7-(6-(3-(piperidin-1-yl)propoxy)pyridin-3-yl)-2,9-dihydro-1H-spiro[8-oxa-2,4,10a-triazanaphtho[2,1,8-cde]azulene-10,1′-cyclobutan]-1-one]: 0.17 nM.
